pIC50: −log10 of the molar value. Counter-ions that a name gives are not always drawn.
Tests used:
[1] = tested on: apoAI secretion from HepG2 cells; test: ApoAI secretion from HepG2 cells (ELISA of culture media); type: cell-based, human; settings: 16-hour incubation, up to the maximum dose of 20 μM
Protocol: HepG2 cells were treated with compound A at the indicated doses for 16 hours. The concentration in the cell culture media of apoB, apoAI and HSA after the incubation period was measured with the appropriate ELISA assay and normalized to total cell protein. The data shown are expressed as a percentage of the control (DMSO only).
The human hepatoblastoma cell line, HepG2, was obtained from the American Type Culture Collection (Rockville, Md.; ATCC accession no. 8065). Cultures were maintained at 37° C. in a 5% carbon dioxide atmosphere in T-75 culture flasks with 12 mL of RPMI 1640 medium containing 10% fetal bovine serum (all cell culture media and buffers were obtained from GIBCO Life Technologies, Gaithersburg, Md.). Cells were subcultured 1:4 once a week and fed fresh medium 3 times a week.
Experiments to measure the effects of compounds A and B on protein secretion were carried out in 48-well plates. HepG2 cells were subcultured 1:2 and allowed to come to confluency at least 24 hours before drug treatment. Before commencement of drug treatment, culture medium was removed, the cells washed once with PBS and 1 mL of fresh medium was added quantitatively. […] The cells were homogenized by trituration with a 1 mL micropipettor, and protein was measured using the Coomassie reagent (Pierce Chemical Co, Rockford, Ill.) as described by the manufacturer. […]

[2] = tested on: TG secretion from HepG2 cells; test: TG secretion from HepG2 cells (3H-glycerol labelling, extraction, TLC); type: cell-based; settings: Homo sapiens, 1.25 μM-20 μM, 3H-glycerol labelling for two hours, read-out: IC50 for inhibition of TG secretion
Protocol: HepG2 cells were treated with Compound A at the indicated doses for […], the last two hours of which were in the presence of 5 μCi/mL 3H-glycerol. The concentration of radiolabelled triglycerides in the cell culture media was measured by quantitative extraction, followed by thin layer chromatography analysis and normalization to total cell protein. The data shown are expressed as a percentage of the control (DMSO only).
HepG2 cells were subcultured into 6-well dishes and allowed to come to confluency at least 24 hours before drug treatment. Prior to addition of the drug, culture media were removed, cells washed once with PBS, and 1 mL of fresh medium (RPMI 1640+10% FBS) was added quatitatively. […]
Total lipids were extracted from the media and analyzed as follows. […] Raw data was normalized to cell protein and expressed as percent of DMSO control.
HepG2 cells were treated with doses of compound A ranging from 1.25 μM-20 μM under conditions identical to those utilized for the apoB, apoAl and HSA secretion experiment. The intracellular pool of TG was radiolabelled for two hours with 3H-glycerol in the presence of vehicle or varying doses of compound A. The accumulation of radiolabelled TG in the medium was measured by quantitative extraction, followed by thin layer chromatography analysis and normalization to total cell protein. […]

- pIC50 [2]: ~5.70
SMILES: O=C1c2ccccc2CN1C1CCN(CCC(c2ccccc2)c2ccccc2)CC1 [compound A, 2-[1-(3,3-diphenylpropyl)-4-piperdinyl]-2,3-dihydro-3-oxo-1H-isoindole hydrochloride]
- secretion of apoAI [1]: unaffected
